Experimental data as given in the CheMixHub viscosity set.
± gives the uncertainty stated by the source.

Assay: xn = mol fraction of the nth substance listed

NC1CCCCC1 + Cc1ccccc1
303.15 K, 101 kPa
Conditions	viscosity [mPa·s]
x2 = 0.1242	1.381 ± 0.012
x2 = 0.2292	1.177 ± 0.0099
x2 = 0.3268	1.013 ± 0.0085
x2 = 0.4121	0.8791 ± 0.0075
x2 = 0.5347	0.7115 ± 0.0061
x2 = 0.6445	0.6079 ± 0.0053
x2 = 0.7365	0.5443 ± 0.0047
x2 = 0.8431	0.4838 ± 0.0043
x2 = 0.922	0.4617 ± 0.0041

[Cl-].[Na+] + OCCO
101 kPa, x1 = 0.0588
Conditions	viscosity [mPa·s]
303 K	20.88 ± 0.29
313 K	14.11 ± 0.19
323 K	9.987 ± 0.13

CC(O)CO (centres undefined) + CCCCO
viscosity [mPa·s], 100 kPa
Conditions	298.15 K	303.15 K	308.15 K	313.15 K	318.15 K	323.15 K
x2 = 0.1	27.93 ± 0.76	21.57 ± 0.57	16.86 ± 0.44	13.38 ± 0.34	10.79 ± 0.27	8.811 ± 0.22
x2 = 0.2	19.65 ± 0.49	15.46 ± 0.38	12.28 ± 0.3	9.943 ± 0.24	8.14 ± 0.19	6.729 ± 0.16
x2 = 0.302	14.18 ± 0.34	11.36 ± 0.27	9.188 ± 0.21	7.539 ± 0.17	6.25 ± 0.14	5.239 ± 0.12
x2 = 0.4	10.82 ± 0.26	8.829 ± 0.21	7.309 ± 0.17	6.057 ± 0.14	5.107 ± 0.12	4.328 ± 0.097
x2 = 0.5	8.015 ± 0.19	6.634 ± 0.16	5.555 ± 0.13	4.699 ± 0.11	–	–
x2 = 0.501	–	–	–	–	3.987 ± 0.092	3.422 ± 0.078
x2 = 0.6	6.068 ± 0.14	5.094 ± 0.12	4.337 ± 0.099	3.686 ± 0.084	–	–
x2 = 0.601	–	–	–	–	3.178 ± 0.071	2.743 ± 0.061
x2 = 0.701	4.884 ± 0.11	4.156 ± 0.094	3.556 ± 0.08	3.057 ± 0.068	2.659 ± 0.059	2.317 ± 0.051
x2 = 0.801	3.858 ± 0.088	3.307 ± 0.075	2.885 ± 0.065	2.514 ± 0.056	2.199 ± 0.049	1.937 ± 0.043
x2 = 0.9	3.102 ± 0.07	2.716 ± 0.061	2.374 ± 0.053	2.078 ± 0.046	–	–
x2 = 0.901	–	–	–	–	1.833 ± 0.04	1.634 ± 0.036

ClC=C(Cl)Cl + CC(=O)CC(C)C
viscosity [mPa·s], 101.33 kPa
Conditions	x1 = 0.1088	x1 = 0.1998	x1 = 0.3286	x1 = 0.4037	x1 = 0.5018	x1 = 0.5921	x1 = 0.7362	x1 = 0.7986	x1 = 0.8859
298.15 K	0.564 ± 0.007	0.578 ± 0.007	0.593 ± 0.008	0.603 ± 0.008	0.616 ± 0.008	0.621 ± 0.008	0.631 ± 0.008	0.63 ± 0.008	0.624 ± 0.008
308.15 K	0.508 ± 0.007	0.516 ± 0.007	0.533 ± 0.007	0.546 ± 0.007	0.561 ± 0.007	0.574 ± 0.007	0.595 ± 0.008	0.6 ± 0.008	0.605 ± 0.008
318.15 K	0.464 ± 0.006	0.475 ± 0.006	0.49 ± 0.006	0.5 ± 0.007	0.51 ± 0.007	0.519 ± 0.007	0.533 ± 0.007	0.539 ± 0.007	0.547 ± 0.007

O=C(CO)[C@@H](O)[C@H](O)[C@H](O)CO + C[N+](C)(C)CCO.[Cl-]
100 kPa, x2 = 0.6
Conditions	viscosity [mPa·s]
313.2 K	1645 ± 100
318.2 K	1057 ± 61

NC1CCCCC1 + COCCO
308.15 K, 101 kPa
Conditions	viscosity [mPa·s]
x2 = 0.1393	1.314 ± 0.017
x2 = 0.267	1.303 ± 0.017
x2 = 0.3844	1.298 ± 0.016
x2 = 0.4927	1.29 ± 0.016
x2 = 0.593	1.294 ± 0.016
x2 = 0.6861	1.283 ± 0.016
x2 = 0.7727	1.263 ± 0.016
x2 = 0.8536	1.254 ± 0.016
x2 = 0.9291	1.242 ± 0.016
